≈ marks a conversion by molar mass, not a printed value.
Experiments:
Type in all cases: cell-based
[1] = tested on: Staphylococcus aureus FDA 209PJc-1; test: Antibacterial activity, agar-dilution MIC, organism No. 1; conditions: Staphylococcus aureus, FDA209PJC1; Organism No. 1, bouillon-agar; read-out: Minimum Inhibitory Concentration
Outline: (§1)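 Agar dilution, bouillon-agar plates; MIC reported in μg/ml of medium.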

[2] = tested on: Staphylococcus aureus Terajima; test: Antibacterial activity, agar-dilution MIC, organism No. 2; conditions: Staphylococcus aureus; Organism No. 2, bouillon-agar; read-out: Minimum Inhibitory Concentration
Outline: as §1

[3] = tested on: Staphylococcus aureus MS 353; test: Antibacterial activity, agar-dilution MIC, organism No. 3; conditions: Staphylococcus aureus, MS353; Organism No. 3, bouillon-agar; read-out: Minimum Inhibitory Concentration
Outline: as §1

[4] = tested on: Streptococcus pyogenes Cook; test: Antibacterial activity, agar-dilution MIC, organism No. 4; conditions: Streptococcus pyogenes; Organism No. 4, bouillon-agar; read-out: Minimum Inhibitory Concentration
Outline: as §1

[5] = tested on: Escherichia coli NIHJ-JC-2; test: Antibacterial activity, agar-dilution MIC, organism No. 5; conditions: Escherichia coli, NIHJJC2; Organism No. 5, bouillon-agar; read-out: Minimum Inhibitory Concentration
Outline: as §1

[6] = tested on: Escherichia coli K12 C600 IAM 1264; test: Antibacterial activity, agar-dilution MIC, organism No. 6; conditions: Escherichia coli, IAM1264; Organism No. 6, bouillon-agar; read-out: Minimum Inhibitory Concentration
Outline: as §1

[7] = tested on: Klebsiella pneumoniae PCI-602; test: Antibacterial activity, agar-dilution MIC, organism No. 7; conditions: Klebsiella pneumoniae, PCI602; Organism No. 7, bouillon-agar; read-out: Minimum Inhibitory Concentration
Outline: as §1

[8] = tested on: Salmonella typhimurium IID 971; test: Antibacterial activity, agar-dilution MIC, organism No. 8; conditions: Salmonella enterica; Organism No. 8, bouillon-agar; read-out: Minimum Inhibitory Concentration
Outline: as §1

Salmonella typhi 901 = test: Antibacterial activity, agar-dilution MIC, organism No. 9; conditions: Salmonella enterica, TYPHI, read-out: Minimum Inhibitory Concentration
Outline: as §1

[9] = tested on: Salmonella paratyphi-A 1015; test: Antibacterial activity, agar-dilution MIC, organism No. 10; conditions: Salmonella enterica, PARATYPHI, read-out: Minimum Inhibitory Concentration
Outline: as §1

[10] = tested on: Salmonella shottmuelleri 8006; test: Antibacterial activity, agar-dilution MIC, organism No. 11; conditions: Salmonella, 8006; Organism No. 11, bouillon-agar; read-out: Minimum Inhibitory Concentration
Outline: as §1

[11] = tested on: Salmonella enteritidis G 14; test: Antibacterial activity, agar-dilution MIC, organism No. 12; conditions: Salmonella enterica, ENTERITIDIS; Organism No. 12, bouillon-agar; read-out: Minimum Inhibitory Concentration
Outline: as §1

[12] = tested on: Serratia marcescens IAM 1184; test: Antibacterial activity, agar-dilution MIC, organism No. 13; conditions: Serratia marcescens, IAM1184; Organism No. 13, bouillon-agar; read-out: Minimum Inhibitory Concentration
Outline: as §1

[13] = tested on: Bacillus subtilis ATCC 6633; test: Antibacterial activity, agar-dilution MIC, organism No. 14; conditions: Bacillus subtilis, ATCC6633; Organism No. 14, bouillon-agar; read-out: Minimum Inhibitory Concentration
Outline: as §1

[14] = tested on: Pseudomonas aeruginosa IFO 3445; test: Antibacterial activity, agar-dilution MIC, organism No. 15; conditions: Pseudomonas aeruginosa, IFO3445; Organism No. 15, bouillon-agar; read-out: Minimum Inhibitory Concentration
Outline: as §1

[15] = tested on: Pseudomonas aeruginosa NCTC 10490; test: Antibacterial activity, agar-dilution MIC, organism No. 16; conditions: Pseudomonas aeruginosa, NCTC10490; Organism No. 16, bouillon-agar; read-out: Minimum Inhibitory Concentration
Outline: as §1

[16] = tested on: Pseudomonas aeruginosa PAO 1; test: Antibacterial activity, agar-dilution MIC, organism No. 17; conditions: Pseudomonas aeruginosa, PAO1; Organism No. 17, bouillon-agar; read-out: Minimum Inhibitory Concentration
Outline: as §1

[17] = tested on: Proteus morganii IFO 3848; test: Antibacterial activity, agar-dilution MIC, organism No. 18; conditions: Morganella morganii, IFO3848; Organism No. 18, bouillon-agar; read-out: Minimum Inhibitory Concentration
Outline: as §1

[18] = tested on: Proteus mirabilis IFO 3849; test: Antibacterial activity, agar-dilution MIC, organism No. 19; conditions: Proteus mirabilis, IFO3849; Organism No. 19, bouillon-agar; read-out: Minimum Inhibitory Concentration
Outline: as §1

Proteus vulgaris OX-19 = test: Antibacterial activity, agar-dilution MIC, organism No. 20; conditions: Proteus vulgaris, OX19; Organism No. 20, bouillon-agar; read-out: Minimum Inhibitory Concentration
Outline: as §1

Proteus vulgaris HX-19 = test: Antibacterial activity, agar-dilution MIC, organism No. 21; conditions: Proteus vulgaris, HX19; Organism No. 21, bouillon-agar; read-out: Minimum Inhibitory Concentration
Outline: as §1

[19] = tested on: Proteus rettgeri IFO 3850; test: Antibacterial activity, agar-dilution MIC, organism No. 22; conditions: Providencia rettgeri, IFO3850; Organism No. 22, bouillon-agar; read-out: Minimum Inhibitory Concentration
Outline: as §1

[20] = tested on: Enterobacter aerogenes ATCC 13048; test: Antibacterial activity, agar-dilution MIC, organism No. 23; conditions: Klebsiella aerogenes, ATCC13048; Organism No. 23, bouillon-agar; read-out: Minimum Inhibitory Concentration
Outline: as §1

Enterobacter cloacae 963 = test: Antibacterial activity, agar-dilution MIC, organism No. 24; conditions: Enterobacter cloacae, 963; Organism No. 24, bouillon-agar; read-out: Minimum Inhibitory Concentration
Outline: as §1

[21] = tested on: Micrococcus luteus ATCC 9341; test: Antibacterial activity, agar-dilution MIC, organism No. 25; conditions: Micrococcus luteus, ATCC9341; Organism No. 25, bouillon-agar; read-out: Minimum Inhibitory Concentration
Outline: as §1

[22] = tested on: Streptococcus pyogenes IFO 3340; test: Antibacterial activity, agar-dilution MIC, organism No. 26; conditions: Streptococcus pyogenes, IFO3340; Organism No. 26, bouillon-agar; read-out: Minimum Inhibitory Concentration
Outline: as §1

[23] = tested on: Streptococcus faecium IFO 3826; test: Antibacterial activity, agar-dilution MIC, organism No. 27; conditions: Enterococcus faecium, IFO3826; Organism No. 27, bouillon-agar; read-out: Minimum Inhibitory Concentration
Outline: as §1

[24] = tested on: Mycoplasma pneumoniae IID817; test: Antimycoplasmal activity, MIC by phenol red colour change, organism No. 28; conditions: Mycoplasma, IID817; Organism No. 28, PPLO broth + 1% glucose, 37° C.; read-out: Minimum Inhibitory Concentration (MIC)
Procedure: Mycoplasma pneumoniae IID817 was used as the test microorganism in a culture medium prepared by adding 1% of glucose to "PPLO broth (manufactured by Difco Co.) liquid culture medium" at 37° C. with phenol red as an indicator, thereby culturing the test microorganism.

[25] = tested on: Candida albicans IAM 4905; test: Antifungal activity, agar-dilution MIC, organism No. 29; conditions: Candida albicans, IAM4905; Organism No. 29, bouillon-agar; read-out: Minimum Inhibitory Concentration
Outline: as §1

[26] = tested on: Aspergillus niger IFO 6342; test: Antifungal activity, agar-dilution MIC, organism No. 30; conditions: Aspergillus niger, IFO6342; Organism No. 30, bouillon-agar; read-out: Minimum Inhibitory Concentration
Outline: as §1

Structure (SMILES)	MIC [1] [µg/mL]	MIC [2] [µg/mL]	MIC [3] [µg/mL]	MIC [4] [µg/mL]	MIC [5] [µg/mL]	MIC [6] [µg/mL]	MIC [7] [µg/mL]	MIC [8] [µg/mL]	MIC (Salmonella typhi 901) [µg/mL]	MIC [9] [µg/mL]	MIC [10] [µg/mL]	MIC [11] [µg/mL]	MIC [12] [µg/mL]	MIC [13] [µg/mL]	MIC [14] [µg/mL]	MIC [15] [µg/mL]	MIC [16] [µg/mL]	MIC [17] [µg/mL]	MIC [18] [µg/mL]	MIC (Proteus vulgaris OX-19) [µg/mL]	also measured
[C-]#[N+]C12CC3(/C=C/C(=O)OCC(=O)c4ccc(Br)cc4)OC3C1O2 (stereo not drawn) [Compound No. 4, p-bromophenacylβ-substituted acrylate]	0.4 (≈ 1.03 µM)	0.78 (≈ 2 µM)	1.56 (≈ 4 µM)	12.5 (≈ 32 µM)	6.25 (≈ 16 µM)	< 0.05	6.25 (≈ 16 µM)	6.25 (≈ 16 µM)	3.13 (≈ 8.02 µM)	< 0.05	< 0.05	3.13 (≈ 8.02 µM)	> 100	12.5 (≈ 32 µM)	> 100	> 100	> 100	100 (≈ 256 µM)	> 200	0.39 (≈ 1 µM)	MIC (Proteus vulgaris HX-19): 0.39 µg/mL (≈ 1 µM); MIC [19]: 100 µg/mL (≈ 256 µM); MIC [20]: 100 µg/mL (≈ 256 µM); MIC (Enterobacter cloacae 963): 0.2 µg/mL (≈ 0.513 µM); MIC [21]: < 0.05 µg/mL; MIC [22]: 6.25 µg/mL (≈ 16 µM); MIC [23]: 12.5 µg/mL (≈ 32 µM); MIC [24]: < 0.05 µg/mL; MIC [25]: 1.56 µg/mL (≈ 4 µM); MIC [26]: 6.25 µg/mL (≈ 16 µM)
[C-]#[N+]C12CC3(/C=C/C(=O)ON4C(=O)CCC4=O)OC3C1O2 (stereo not drawn) [Compound No. 9]	50 (≈ 172 µM)	50 (≈ 172 µM)	50 (≈ 172 µM)	100 (≈ 345 µM)	50 (≈ 172 µM)	50 (≈ 172 µM)	200 (≈ 689 µM)	50 (≈ 172 µM)	50 (≈ 172 µM)	50 (≈ 172 µM)	50 (≈ 172 µM)	50 (≈ 172 µM)	200 (≈ 689 µM)	200 (≈ 689 µM)	> 200	> 200	> 200	50 (≈ 172 µM)	200 (≈ 689 µM)	200 (≈ 689 µM)	MIC (Proteus vulgaris HX-19): 25 µg/mL (≈ 86.1 µM); MIC [19]: > 200 µg/mL; MIC [20]: > 200 µg/mL; MIC (Enterobacter cloacae 963): > 200 µg/mL; MIC [21]: 25 µg/mL (≈ 86.1 µM); MIC [22]: 100 µg/mL (≈ 345 µM); MIC [23]: 50 µg/mL (≈ 172 µM); MIC [24]: 6.25 µg/mL; MIC [25]: > 100 µg/mL; MIC [26]: > 100 µg/mL

— patent publication US4684664A, “Derivatives of β-(4-isocyano-1,2,3,4-diepoxycyclopentyl) acrylic acid” (Kureha Kagaku Kogyo Kabushiki Kaisha, priority 1984, dated 1987)
